Measurements: EP4624471A1, “PKMYT1 INHIBITOR, PREPARATION METHOD THEREFOR, AND PHARMACEUTICAL COMPOSITION AND USE THEREOF” (Shanghai Qilu Pharmaceutical Research and Development …, priority 2022, dated 2024)

Target: T1, PKMYT1 enzyme (Homo sapiens, UniProt Q99640)
T1 construct: purchased Thermo Scientific A33387
T1 sequence (Q99640 1-499): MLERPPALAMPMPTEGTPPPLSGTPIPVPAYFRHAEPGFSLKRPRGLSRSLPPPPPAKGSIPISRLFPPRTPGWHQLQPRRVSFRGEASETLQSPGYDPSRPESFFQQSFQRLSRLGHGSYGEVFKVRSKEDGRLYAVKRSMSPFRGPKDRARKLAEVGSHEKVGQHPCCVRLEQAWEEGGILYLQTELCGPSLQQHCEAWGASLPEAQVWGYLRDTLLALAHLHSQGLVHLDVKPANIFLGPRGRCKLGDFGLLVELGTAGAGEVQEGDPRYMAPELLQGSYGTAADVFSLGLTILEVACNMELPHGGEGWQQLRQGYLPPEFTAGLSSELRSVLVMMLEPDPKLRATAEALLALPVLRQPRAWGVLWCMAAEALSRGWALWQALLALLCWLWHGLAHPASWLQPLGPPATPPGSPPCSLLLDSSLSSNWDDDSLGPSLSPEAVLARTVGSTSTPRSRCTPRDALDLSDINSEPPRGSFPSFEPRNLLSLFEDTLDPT
Experiment: PKMYT1 enzyme inhibition activity, ADP-GLO method
Format: biochemical
Settings: PKMYT1 enzyme 10 nM, ATP 5 µM, 37°C 90 minutes; read-out: ADP-GLO IC50

Row | Compound | IC50 [nM]
1 | Cc1ccc(O)c(C)c1-n1c(N)c(C(N)=O)c2cnc(C3=CCOCC3)nc21 [Example 16, 6-Amino-2-(3,6-dihydro-2H-pyran-4-yl)-7-(3-hydroxy-2,6-dimethylphenyl)-7H-pyrrolo[2,3-d]pyrimidine-5-carboxamide] | 11.7
2 | Cc1ccc(O)c(C)c1-n1c(N)c(C(N)=O)c2cnc(C3CCOCC3)nc21 [Example 18, 6-Amino-7-(3-hydroxy-2,6-dimethylphenyl)-2-(tetrahydro-2H-pyran-4-yl)-7H-pyrrolo[2,3-d]pyrimidine-5-carboxamide] | 18.3
3 | Cc1nc(C)c2c(C(N)=O)c(N)n(-c3c(C)ccc(O)c3C)c2n1 [Example 19, 6-Amino-7-(3-hydroxy-2,6-dimethylphenyl)-2,4-dimethyl-7H-pyrrolo[2,3-d]pyrimidine-5-carboxamide] | 4.5
4 | Cc1cc2c(C(N)=O)c(N)n(-c3c(C)cc(F)c(O)c3C)c2nc1C [Example 23, 2-Amino-1-(4-fluoro-3-hydroxy-2,6-dimethylphenyl)-5,6-dimethyl-1H-pyrrolo[2,3-b]pyridine-3-carboxamide] | 8.58
5 | Cc1ccc(O)c(C)c1-n1c(N)c(C(N)=O)c2cnc(C#CC(C)(C)O)nc21 [Example 26, 6-Amino-7-(3-hydroxy-2,6-dimethylphenyl)-2-(3-hydroxy-3-methylbut-1-yn-1-yl)-7H-pyrrolo[2,3-d]pyrimidine-5-carboxamide] | 11.3
6 | Cc1ccc(O)c(C)c1-n1c(N)c(C(N)=O)c2cnc(C#CC(C)(C)F)nc21 [Example 27] | 7.15
7 | Cc1ccc(O)c(C)c1-n1c(N)c(C(N)=O)c2cnc(C)c(F)c21 [Example 29, 2-Amino-7-fluoro-1-(3-hydroxy-2,6-dimethylphenyl)-6-methyl-1H-pyrrolo[3,2-c]nicotinamide] | 12.4
8 | Cc1ccc(O)c(C)c1-n1c(N)c(C(N)=O)c2cnccc21 [Example 30, 2-Amino-1-(3-hydroxy-2,6-dimethylphenyl)-1H-pyrrolo[3,2-c]pyridine-3-carboxamide] | 13.7
9 | Cc1cc2c(cn1)c(C(N)=O)c(N)n2-c1c(C)ccc(O)c1C [Example 31, 2-Amino-1-(3-hydroxy-2,6-dimethylphenyl)-6-methyl-1H-pyrrolo[3,2-c]pyridine-3-carboxamide] | 11.1
10 | CCc1ccc(O)c(CC)c1-n1c(N)c(C(N)=O)c2cnc(C)nc21 [Example 32, 6-Amino-7-(2,6-diethyl-3-hydroxyphenyl)-2-methyl-7H-pyrrolo[2,3-d]pyrimidine-5-carboxamide] | 263
11 | Cc1ccc(O)c(C)c1-n1c(N)c(C(N)=O)c2cnc(N3CCC(F)(F)CC3)nc21 [Example 37, 6-Amino-2-(4,4-difluoropiperidin-1-yl)-7-(3-hydroxy-2,6-dimethylphenyl)-7H-pyrrolo[2,3-d]pyrimidine-5-carboxamide] | 3.09
12 | Cc1ccc(O)c(C)c1-n1c(N)c(C(N)=O)c2cnc(N)nc21 [Example 40, 2,6-Diamino-7-(3-hydroxy-2,6-dimethylphenyl)-7H-pyrrolo[2,3-d]pyrimidine-5-carboxamide] | 23.6
13 | Cc1ccc(O)c(C)c1-n1c(N)c(C(N)=O)c2cnc(C3CC3)nc21 [Example 41, 6-Amino-2-cyclopropyl-7-(3-hydroxy-2,6-dimethylphenyl)-7H-pyrrolo[2,3-d]pyrimidine-5-carboxamide] | 11.2
14 | CC(C)=Cc1ncc2c(C(N)=O)c(N)n(-c3c(C)ccc(O)c3C)c2n1 [Example 42, 6-Amino-7-(3-hydroxy-2,6-dimethylphenyl)-2-(2-methylprop-1-en-1-yl)-7H-pyrrolo[2,3-d]pyrimidine-5-carboxamide] | 6.62
15 | Cc1cc2c(C(N)=O)c(N)n(-c3c(C)c(O)cc(Cl)c3C)c2nc1C [Example 48, 2-Amino-1-(3-chloro-5-hydroxy-2,6-dimethylphenyl)-5,6-dimethyl-1H-pyrrolo[2,3-b]nicotinamide] | 36.8
16 | Cc1cc2c(C(N)=O)c(N)n(-c3c(C)cnc(O)c3C)c2nc1C [Example 50, 2-Amino-1-(2-hydroxy-3,5-dimethylpyridin-4-yl)-5,6-dimethyl-1H-pyrrolo[2,3-b]pyridine-3-carboxamide] | 220
17 | Cc1cc2c(C(N)=O)c(N)n(-c3c(C)c(C)cc(O)c3C)c2nc1C [Example 53, 2-Amino-1-(3-hydroxy-2,5,6-trimethylphenyl)-5,6-dimethyl-1H-pyrrolo[2,3-b]pyridine-3-carboxamide] | 194
18 | Cc1cc2c(C(N)=O)c(N)n(-c3c(C)c(O)c(F)c(F)c3C)c2nc1C [Example 54] | 17.5
19 | Cc1ccc(O)c(C)c1-n1c(N)c(C(N)=O)c2cnc(CC(C)C)nc21 [Example 57, 6-Amino-7-(3-hydroxy-2,6-dimethylphenyl)-2-isobutyl-7H-pyrrolo[2,3-d]pyrimidine-5-carboxamide] | 3.04
20 | Cc1cc(F)c(O)c(C)c1-n1c(N)c(C(N)=O)c2cc(C(F)(F)F)c(C)nc21 [Example 59, 2-Amino-1-(4-fluoro-3-hydroxy-2,6-dimethylphenyl)-6-methyl-5-(trifluoromethyl)-1H-pyrrolo[2,3-b]pyridine-3-carboxamide] | 8.67
21 | CCc1nc(C)nc2c1c(C(N)=O)c(N)n2-c1c(C)c(O)cc(F)c1C [Example 61] | 38.6

Second part, the compound after the results:

Row | IC50 [nM] | Compound
22 | 15.7 | Cc1ccc(O)c(C)c1-n1c(N)c(C(N)=O)c2cnc(-c3ccccc3)nc21 [Example 11, 6-Amino-7-(3-hydroxy-2,6-dimethylphenyl)-2-phenyl-7H-pyrrolo[2,3-d]pyrimidine-5-carboxamide]
23 | 6.58 | Cc1ccc(O)c(C)c1-n1c(N)c(C(N)=O)c2cnc(C#CC3CC3)nc21 [Example 12, 6-Amino-2-(cyclopropylethynyl)-7-(3-hydroxy-2,6-dimethylphenyl)-7H-pyrrolo[2,3-d]pyrimidine-5-carboxamide]
24 | 12.2 | Cc1ccc(O)c(C)c1-n1c(N)c(C(N)=O)c2cnc(N3CCCCC3)nc21 [Example 13, 6-Amino-7-(3-hydroxy-2,6-dimethylphenyl)-2-(piperidin-1-yl)-7H-pyrrolo[2,3-d]pyrimidine-5-carboxamide]
25 | 24.3 | Cc1ccc(O)c(C)c1-n1c(N)c(C(N)=O)c2cnc(C#N)nc21 [Example 14, 6-Amino-2-cyano-7-(3-hydroxy-2,6-dimethylphenyl)-7H-pyrrolo[2,3-d]pyrimidine-5-carboxamide]
26 | 168 | COc1ccc(CNc2ncc3c(C(N)=O)c(N)n(-c4c(C)ccc(O)c4C)c3n2)cc1 [Example 15, 6-Amino-7-(3-hydroxy-2,6-dimethylphenyl)-2-((4-methoxybenzyl)amino)-7H-pyrrolo[2,3-d]pyrimidine-5-carboxamide]
27 | 71.5 | CCN(CC)c1ncc2c(C(N)=O)c(N)n(-c3c(C)ccc(O)c3C)c2n1 [Example 17, 6-Amino-2-(diethylamino)-7-(3-hydroxy-2,6-dimethylphenyl)-7H-pyrrolo[2,3-d]pyrimidine-5-carboxamide]
28 | 13.8 | Cc1nc(Cl)c2c(C(N)=O)c(N)n(-c3c(C)ccc(O)c3C)c2n1 [Example 28, 6-Amino-4-chloro-7-(3-hydroxy-2,6-dimethylphenyl)-2-methyl-7H-pyrrolo[2,3-d]pyrimidine-5-carboxamide]
29 | 11.3 | Cc1ccc(O)c(C)c1-n1c(N)c(C(N)=O)c2cnc(Nc3ccccc3)nc21 [Example 33, 6-Amino-7-(3-hydroxy-2,6-dimethylphenyl)-2-(phenylamino)-7H-pyrrolo[2,3-d]pyrimidine-5-carboxamide]
30 | 25.7 | Cc1ccc(O)c(C)c1-n1c(N)c(C(N)=O)c2cnc(N3CCOCC3)nc21 [Example 34, 6-Amino-7-(3-hydroxy-2,6-dimethylphenyl)-2-morpholino-7H-pyrrolo[2,3-d]pyrimidine-5-carboxamide]
31 | 37.8 | Cc1ccc(O)c(C)c1-n1c(N)c(C(N)=O)c2cnc(N3CCCC3)nc21 [Example 35, 6-Amino-7-(3-hydroxy-2,6-dimethylphenyl)-2-(pyrrolidin-1-yl)-7H-pyrrolo[2,3-d]pyrimidine-5-carboxamide]
32 | 17.4 | Cc1ccc(O)c(C)c1-n1c(N)c(C(N)=O)c2cnc(N(C)C)nc21 [Example 36, 6-Amino-2-(dimethylamino)-7-(3-hydroxy-2,6-dimethylphenyl)-7H-pyrrolo[2,3-d]pyrimidine-5-carboxamide]
33 | 26.4 | Cc1cc2c(C(N)=O)c(N)n(-c3c(C)cc(Cl)c(O)c3C)c2nc1C [Example 43, 2-Amino-1-(4-chloro-3-hydroxy-2,6-dimethylphenyl)-5,6-dimethyl-1H-pyrrolo[2,3-b]pyridine-3-carboxamide]
34 | 11.8 | Cc1cc2c(C(N)=O)c(N)n(-c3c(C)c(O)c(Cl)c(F)c3C)c2nc1C [Example 44, 2-Amino-1-(4-chloro-3-fluoro-5-hydroxy-2,6-dimethylphenyl)-5,6-dimethyl-1H-pyrrolo[2,3-b]pyridine-3-carboxamide]
35 | 10.8 | Cc1ccc(O)c(C)c1-n1c(N)c(C(N)=O)c2cncnc21 [Example 45, 6-Amino-7-(3-hydroxy-2,6-dimethylphenyl)-7H-pyrrolo[2,3-d]pyrimidine-5-carboxamide]
36 | 43.6 | COc1ncc2c(C(N)=O)c(N)n(-c3c(C)ccc(O)c3C)c2n1 [Example 46, 6-Amino-7-(3-hydroxy-2,6-dimethylphenyl)-2-methoxy-7H-pyrrolo[2,3-d]pyrimidine-5-carboxamide]
37 | 12.9 | C#Cc1ncc2c(C(N)=O)c(N)n(-c3c(C)ccc(O)c3C)c2n1 [Example 47, 6-Amino-2-ethynyl-7-(3-hydroxy-2,6-dimethylphenyl)-7H-pyrrolo[2,3-d]pyrimidine-5-carboxamide]
